Measurements: patent US6737383B1, “Herbicidal oxadiazolidines” (priority 1999, dated 2004)

Key:
[1] = tested on: blackgrass; experiment: Test B pre/postemergence blackgrass; type: in vivo, Alopecurus myosuroides
Outline: (§1)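 Test chemicals in a non-phytotoxic solvent mixture with surfactant were sprayed preemergence onto planted seeds and postemergence onto plants 2 to 18 cm tall (1- to 4-leaf stage). After twelve to sixteen days in a greenhouse, injury was visually rated against untreated controls from 0 (no effect) to 10 (complete control).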

[2] = tested on: surinam grass; experiment: Test B pre/postemergence surinam grass; type: in vivo, Brachiaria decumbens
Outline: as §1

[3] = tested on: cocklebur; experiment: Test B pre/postemergence cocklebur; type: in vivo, Xanthium strumarium
Outline: as §1

[4] = tested on: corn; experiment: Test B pre/postemergence corn; type: in vivo, Zea mays
Outline: as §1

[5] = tested on: giant foxtail; experiment: Test B pre/postemergence giant foxtail; type: in vivo, Setaria faberii
Outline: as §1

[6] = tested on: morningglory; experiment: Test B pre/postemergence morningglory; type: in vivo, Ipomoea hederacea
Outline: as §1

[7] = tested on: pigweed; experiment: Test B pre/postemergence pigweed; type: in vivo, Amaranthus retroflexus
Outline: as §1

[8] = tested on: rape; experiment: Test B pre/postemergence rape; type: in vivo, Brassica napus
Outline: as §1

[9] = tested on: soybean; experiment: Test B pre/postemergence soybean; type: in vivo, Glycine max
Outline: as §1

[10] = tested on: sugar beet; experiment: Test B pre/postemergence sugar beet; type: in vivo, Beta vulgaris
Outline: as §1

[11] = tested on: velvetleaf; experiment: Test B pre/postemergence velvetleaf; type: in vivo, Abutilon theophrasti
Outline: as §1

[12] = tested on: wheat; experiment: Test B pre/postemergence wheat; type: in vivo, Triticum aestivum
Outline: as §1

[13] = tested on: wild oat; experiment: Test B pre/postemergence wild oat; type: in vivo, Avena fatua
Outline: as §1

[14] = tested on: rice; experiment: Test B flood test rice; type: in vivo, Oryza sativa
Outline: (§2)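 Plants were grown to the 2-leaf stage before treatment with test chemical, then held in a greenhouse for twelve to sixteen days. Injury was visually rated against untreated controls on a 0–10 scale, where 0 is no effect and 10 is complete control.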

[15] = tested on: smallflower flatsedge; experiment: Test B flood test smallflower flatsedge; type: in vivo, Cyperus difformis
Outline: as §2

[16] = tested on: duck salad; experiment: Test B flood test duck salad; type: in vivo, Heteranthera limosa
Outline: as §2

[17] = Preemergence, Rate 62 g/ha, scale of 0 to 10 where 0 is no effect and 10 is complete control
[18] = Preemergence, Rate 250 g/ha, scale of 0 to 10 where 0 is no effect and 10 is complete control
[19] = Preemergence, Rate 500 g/ha, scale of 0 to 10 where 0 is no effect and 10 is complete control
[20] = Rate 62 g/ha, Postemergence, scale 0 to 10 (0 no effect, 10 complete control)
[21] = Rate 125 g/ha, Postemergence, scale of 0 to 10 where 0 is no effect and 10 is complete control
[22] = Rate 125 g/ha, Preemergence, scale of 0 to 10 where 0 is no effect and 10 is complete control
[23] = Rate 250 g/ha, Postemergence, scale of 0 to 10 where 0 is no effect and 10 is complete control
[24] = Rate 500 g/ha, Postemergence, scale 0 to 10, 0 no effect, 10 complete control
[25] = Rate 62 g/ha, headed Pre-emergence (flood test species), scale 0 to 10 (0 no effect, 10 complete control)
[26] = Rate 125 g/ha, Pre-emergence, flood test species, scale 0 to 10 where 0 is no effect and 10 is complete control
[27] = Rate 250 g/ha, Pre-emergence, flood-test species, scale 0 to 10, 0 is no effect, 10 is complete control
[28] = Rate 500 g/ha, Pre-emergence, flood test species, scale 0 to 10 (0 no effect, 10 complete control)

Cc1ccccc1-n1c(=O)on(C(=O)N(c2ccc3c(c2)CCC3)C(C)C)c1=O [Compound 278]
2: Giant foxtail plant response rating [5, 18] | Giant foxtail plant response rating [5, 22] | Velvetleaf plant response rating [11, 24]
1: Soybean plant response rating [9, 20] | Soybean plant response rating [9, 21] | Plant response rating, Soybean [9, 23] | Soybean plant response rating [9, 24]
0: Blackgrass plant response rating [1, 17] | Blackgrass plant response rating [1, 18] | Plant response rating, Blackgrass [1, 19] | Blackgrass plant response rating [1, 20] | Blackgrass plant response rating [1, 21] | Blackgrass plant response rating [1, 22] | Plant response rating, Blackgrass [1, 23] | Blackgrass plant response rating [1, 24] | B. signalgrass plant response rating [2, 17] | B. signalgrass plant response rating [2, 18] | Plant response rating, B. signalgrass [2, 19] | B. signalgrass plant response rating [2, 20] | B. signalgrass plant response rating [2, 21] | B. signalgrass plant response rating [2, 22] | Plant response rating, B. signalgrass [2, 23] | B. signalgrass plant response rating [2, 24] | Cocklebur plant response rating [3, 17] | Cocklebur plant response rating [3, 18] | Plant response rating, Cocklebur [3, 19] | Cocklebur plant response rating [3, 20] | Cocklebur plant response rating [3, 21] | Cocklebur plant response rating [3, 22] | Plant response rating, Cocklebur [3, 23] | Corn plant response rating [4, 17] | Corn plant response rating [4, 18] | Plant response rating, Corn [4, 19] | Corn plant response rating [4, 20] | Corn plant response rating [4, 21] | Corn plant response rating [4, 22] | Plant response rating, Corn [4, 23] | Corn plant response rating [4, 24] | Giant foxtail plant response rating [5, 17] | Giant foxtail plant response rating [5, 20] | Giant foxtail plant response rating [5, 21] | Plant response rating, Giant foxtail [5, 23] | Giant foxtail plant response rating [5, 24] | Morningglory plant response rating [6, 17] | Morningglory plant response rating [6, 18] | Plant response rating, Morningglory [6, 19] | Morningglory plant response rating [6, 22] | Redroot pigweed plant response rating [7, 17] | Redroot pigweed plant response rating [7, 18] | Plant response rating, Redroot pigweed [7, 19] | Redroot pigweed plant response rating [7, 20] | Redroot pigweed plant response rating [7, 21] | Redroot pigweed plant response rating [7, 22] | Plant response rating, Redroot pigweed [7, 23] | Rape plant response rating [8, 17] | Rape plant response rating [8, 18] | Plant response rating, Rape [8, 19] | Rape plant response rating [8, 20] | Rape plant response rating [8, 21] | Rape plant response rating [8, 22] | Plant response rating, Rape [8, 23] | Rape plant response rating [8, 24] | Soybean plant response rating [9, 17] | Soybean plant response rating [9, 18] | Plant response rating, Soybean [9, 19] | Soybean plant response rating [9, 22] | Sugarbeets plant response rating [10, 17] | Sugarbeets plant response rating [10, 18] | Plant response rating, Sugarbeets [10, 19] | Sugarbeets plant response rating [10, 20] | Sugarbeets plant response rating [10, 21] | Sugarbeets plant response rating [10, 22] | Plant response rating, Sugarbeets [10, 23] | Sugarbeets plant response rating [10, 24] | Velvetleaf plant response rating [11, 17] | Velvetleaf plant response rating [11, 18] | Plant response rating, Velvetleaf [11, 19] | Velvetleaf plant response rating [11, 20] | Velvetleaf plant response rating [11, 21] | Velvetleaf plant response rating [11, 22] | Plant response rating, Velvetleaf [11, 23] | Wheat plant response rating [12, 17] | Wheat plant response rating [12, 18] | Plant response rating, Wheat [12, 19] | Wheat plant response rating [12, 20] | Wheat plant response rating [12, 21] | Wheat plant response rating [12, 22] | Plant response rating, Wheat [12, 23] | Wheat plant response rating [12, 24] | Wild oats plant response rating [13, 17] | Wild oats plant response rating [13, 18] | Plant response rating, Wild oats [13, 19] | Wild oats plant response rating [13, 20] | Wild oats plant response rating [13, 21] | Plant response rating, Wild oats [13, 23] | Wild oats plant response rating [13, 24] | Rice plant response rating [14, 25] | Rice plant response rating [14, 26] | Rice plant response rating [14, 27] | Rice plant response rating [14, 28] | S. Flatsedge plant response rating [15, 25] | S. Flatsedge plant response rating [15, 26] | S. Flatsedge plant response rating [15, 27] | S. Flatsedge plant response rating [15, 28] | Ducksalad plant response rating [16, 25] | Ducksalad plant response rating [16, 26] | Ducksalad plant response rating [16, 27] | Ducksalad plant response rating [16, 28]
8: Plant response rating, Giant foxtail [5, 19]
4: Plant response rating, Morningglory [6, 23] | Morningglory plant response rating [6, 24] | Redroot pigweed plant response rating [7, 24]
3: Cocklebur plant response rating [3, 24] | Morningglory plant response rating [6, 20] | Morningglory plant response rating [6, 21]
